Test results from patent US5633277A, “Sulfonamide aminomethylene derivatives as immunosuppressants” (Miles Inc., priority 1995, dated 1997).

What was measured:
[1] = tested on: human T-cells; assay: Suppression of Human T-Cell Proliferation Assay (mitogen-induced, [3H]-thymidine incorporation); type: cell-based; conditions: for IC50: Homo sapiens, T-cell, 72 hours incubation, mitogen stimulated, read-out: IC50 (inhibition of [3H]-thymidine incorporation of T-cells by 50%)
Excerpt: 2) Human T Lymphocyte Inhibition
Inhibition of mitogen-induced T-cell proliferation can be used to profile immunosuppressive activity of test compounds. In the description of the assay which follows, mitogen-induced T-cell proliferation was used to test the inhibitory potencies of select compounds of the present invention.
In an assay similar to that described by Bradley in Mishell et al. (Eds.), 1980, Selected Methods in Cellular Immunology, pp 156-161, W. H. Freeman & Co., San Fransisco, Calif., T-cells were stimulated by incubation with phytohemagglutinin (PPIA) which binds to cell surface molecules, including the T-cell receptor. This stimulation results in proliferation which can be measured by incorporation of [^3 H]-thymidine into cellular DNA.
The immunosuppressive properties of the compounds of the present invention can be determined by adding various concentrations of the compounds to these cultures and measuring the effect on T-cell proliferation.
Suppression of Human T-Cell Proliferation Assay
Fresh LeukoPaks were obtained from the New York Blood Center, New York, N.Y. The cells, including erythrocytes and leukocytes, were diluted with Hank's Balanced Salt Solution (HBSS) (GIBCO, Grand Island, N.Y.) and layered over Lymphoprep (Nycomed Pharma AS, Oslo, Norway) in sterile 50 ml conical centrifuge tubes. Lymphocytes were isolated at the Hank's/Nycomed interface after centrifugation at 2000×g, 4° C. for 15 min. The lymphocytes were washed with Minimal Essential Medium (GIBCO) containing 2% fetal bovine serum (FBS) (Sigma Chemical Co., St. Louis, Mo.), 1% HEPES buffer (GIBCO) and 1% Penicillin-Stretomycin solution (GIBCO).
T-cells were further purified essentially by sheep erythrocyte (SRBC) rosetting as described by Morimoto et al., 1983, J. Immunol. 130:157. The isolated lymphocytes were adjusted to 2×10^7 cells/ml and 5 ml aliquots of the cell suspension were incubated for 10 minutes at room temperature with 5 ml of a 5% SRBC (Cappel, Organon Technika Corp., West Chester, Pa.) suspension. The cells were gently pelleted by centrifugation at 300 rpm for 10 minutes, followed by a 1 hour incubation at room temperature to allow rosette formation. The cells were gently resuspended,layered over Lymphoprep and centrifuged for 30 minutes at 500×g. The pellet, containing rosetted T-cells and SRBC was treated with ice cold buffered ammonium chloride (GIBCO) to lyse the erythrocytes. T-cells were washed twice with HBSS.
Purified T-cells were resuspended at 2×10^6 cells/ml in complete culture medium composed of RPMI-1640 (Whittaker Bioproducts, Walkerville, Md.) with 10% FBS (Sigma), 2 mM L-glutamine (GIBCO), 1% Penicillin-Streptomycin (GIBCO) and 15 mM HEPES (GIBCO). In 96-well plates (Becton Dickinson, Lincoln Park, N.J.), 0.1 ml aliquots of T-cell suspension were mixed with 0.05 ml of 40 μg/ml PPIA-M (Sigma). The compounds of this invention were dissolved in dimethylsulfoxide at 10 mM and various dilutions in complete medium were added in duplicate wells (0.05 ml/well). The plates were incubated at 37° C. in a humidified atmosphere of 5% carbon dioxide and 95% air for 72 hours.
Proliferation was assessed by measurement of [3H]-thymidine incorporation. During the last 6 hours of incubation, the cells were pulse labelled with 1 μCi/well of [3H]-thymidine (New England Nuclear, Boston, Mass.). The cells were harvested onto glass fiber paper using a plate harvester and the radioactivity incorporated into cellular DNA corresponding to individual wells was measured by standard liquid scintillation counting methods. The mean counts per minute (CPM) of replicate wells was calculated and linear regression analysis of mean CPM versus compound concentration was used to determine the concentration of compound which would inhibit [^3 H]-thymidine incorporation of T-cells by 50% (IC50).

[2] = tested on: Lewis rats sensitized with Complete Freund's adjuvant; assay: Adjuvant Arthritis Model in the Rat; type: in vivo; conditions: uninjected hind paw, day 0 to day 16, 10 mg/kg/dose i.p.
Excerpt: Rats sensitized to mycobacterial antigens in Complete Freund's Adjuvant can develop a rapidly destructive adjuvant arthritis. Adjuvant arthritis appears to be an autoimmune disease. Thus, T lymphocytes from immunized donors can transfer the disease to naive recipients (Pearson and Wood, 1964, J. Exp. Med. 120:547.) and susceptibility is controlled, at least in part, by class II MHC genes (Batisto, et al. 1982, Arthritis Rheum. 25:1194).
Adjuvant Arthritis Model in the Rat
Complete Freund's adjuvant is made by supplementing extra heavy mineral oil with 10 mg/ml heat killed Mycobacterium butyricum (Difco Laboratories, Detroit, Mich.). Lewis rats (Charles Rivers, Willmington, Mass.) are given a 0. 1 ml injection of adjuvant (1 mg/animal mycobacterium) subcutaneously into the right hind footpad. In the injected foot, an acute inflammatory reaction occurs which is characterized by erythema, edema and a predominantly neutrophilic cell infiltrate. This is followed by edema in the uninjected contralateral foot by days 10-12. This secondary response is accompanied by a predominantly mononuclear cell infiltrate, indicating the presence of cell-mediated immunity.
The immune response is quantitated by measuring the change in ankle diameter of the uninjected hind paw from day 0 to day 16 post sensitization. This is accomplished using a hand-held dial micrometer. […]

Structure (SMILES)	inhibition of mitogen-induced T-cell proliferation (in words) [1]	IC50 [1] [nM]	Δ Ankle Diameter [2] [mm]	% Inhibition (of ankle swelling) ([2]; vs vehicle control) [%]
CC(C)C[C@@H](CN1CCC[C@H]1C(=O)NCCCCc1ccccc1)NS(=O)(=O)c1cccc2cccnc12 [Example 3, 1-[2-(S)-(Quinoline-8-sulfonylamino)-4-methylpentyl]-L-proline 4-Phenylbutylamide]	inhibited mitogen induced T-cell proliferation	5000	–	–
Cc1ccc(S(=O)(=O)N[C@@H](CC(C)C)CN2CCC[C@H]2C(=O)NCCCCc2ccccc2)cc1 [Example 2, 1-[2-(S)-(Toluene-4-sulfonylamino)-4-methylpentyl]-L-proline 4-Phenylbutylamide]	–	8000	–	–
CC[C@H](C)[C@H](NC(=O)[C@@H]1CCCCN1C[C@@H](NS(C)(=O)=O)[C@@H](C)CC)C(=O)NCc1ccccc1 [Example 11]	–	> 15000	–	–
CC(C)C[C@@H](CN1CCC[C@H]1C(=O)NCCCCc1ccccc1)NS(=O)(=O)/C=C/c1ccccc1 [Example 6, 1-[2-(S)-(2-phenyl-ethenesulfonylamino)-4-methylpentyl]-L-proline 4-Phenylbutylamtde]	–	5000	–	–
CC(=O)Nc1nc(C)c(S(=O)(=O)N[C@@H](CC(C)C)CN2CCC[C@H]2C(=O)NCCCCc2ccccc2)s1 [Example 4, 1-[2-(S)-(2-Acetylamino-4-methyl-S-thiazolesulfonylamino)-4-methylpentyl]-L -proline 4-Phenylbutylamide]	–	2000	–	–
CC(C)C[C@@H](CN1CCC[C@H]1C(=O)NCCCCc1ccccc1)NS(=O)(=O)c1cccs1 [Example 5, 1-[2-(S)-(Thiophene-2-sulfonylamino)-4-methylpentyl]-L-proline 4-Phenylbutylamide]	–	3000	–	–
CC(C)C[C@@H](CN1CCC[C@H]1C(=O)NCCCCc1ccccc1)NS(=O)(=O)CC12CCC(CC1=O)C2(C)C (single isomer, unassigned) [Example 7]	–	2000	–	–
CC(C)C[C@@H](CN1CCC[C@H]1C(=O)NCCCCc1ccccc1)NS(=O)(=O)c1ccc(-c2ccon2)s1 [Example 8, 1-[2-(S)-(5 - [Isoxazol-25-yl]-thiophene-2-sulfonylamino)-4-methylpentyl]-L-proline 4-Phenylbutylamide]	–	1000	–	–
CC(C)C[C@@H](CN1CCC[C@H]1C(=O)NCCCCc1ccccc1)NS(=O)(=O)c1c(C(C)C)cc(C(C)C)cc1C(C)C [Example 10, 1-[2-(S)-(2',4',6'-Triisopropylbenzenesulfonylamino)-4-methylpentyl]-L-proline 4-Phenylbutylamide]	–	4000	–	–
CC(C)C[C@@H](CN1CCC[C@H]1C(=O)NCCCCc1ccccc1)NS(C)(=O)=O [Example 1, 1-[2-(S)-Methanesulfonylamino-4-methylpentyl]-L-proline 4-Phenylbutylamide]	inhibited mitogen induced T-cell proliferation	2000	1.6 ± 0.6	51
